In BindingDB's records for doi:10.7270/Q25T3HZB (Burnham Center For Chemical Genomics, 2010):

Biological target: Kappa-type opioid receptor (Homo sapiens, UniProt P41145)
Assay: kappa opioid receptor blockers, image-based, SAR follow-up (AID 2348)

Sequence of Kappa-type opioid receptor (P41145 whole entry): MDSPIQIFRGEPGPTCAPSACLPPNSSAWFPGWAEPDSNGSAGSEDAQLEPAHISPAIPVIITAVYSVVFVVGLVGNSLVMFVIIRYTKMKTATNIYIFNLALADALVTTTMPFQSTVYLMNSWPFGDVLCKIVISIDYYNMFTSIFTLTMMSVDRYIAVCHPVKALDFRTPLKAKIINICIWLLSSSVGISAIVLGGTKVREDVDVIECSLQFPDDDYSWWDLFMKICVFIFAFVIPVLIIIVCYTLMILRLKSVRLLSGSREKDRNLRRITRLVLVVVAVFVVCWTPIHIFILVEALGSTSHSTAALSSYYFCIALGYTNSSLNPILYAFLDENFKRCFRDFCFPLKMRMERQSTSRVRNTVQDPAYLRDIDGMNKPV

IC50 [µM]	Structure (SMILES)
3.62	CCC(N=Nc1ccnc2cc(Cl)ccc12)c1ccc(O)cc1 (configuration not stated) [4-[1-[2-(7-chloroquinolin-4-yl)hydrazinyl]propylidene]cyclohexa-2,5-dien-1-one]
24.8	Oc1ccc(CN=Nc2ccnc3cc(Cl)ccc23)cc1O [(4Z)-4-[[2-(7-chloroquinolin-4-yl)hydrazinyl]methylidene]-2-hydroxycyclohexa-2,5-dien-1-one]
